Reference: patent publication US20260355151A1, “SPIROCYCLIC DERIVATIVE-CONTAINING SALT OR CRYSTAL FORM, AND PREPARATION METHOD THEREFOR AND USE THEREOF” (SHUJING BIOPHARMA CO., LTD, priority 2022, published 2026)
Structures can show the parent of a compound that is named as a salt. Where two headings read alike, the source gives them in different places.

Experiments:
[1] = target: T1, TAAR1 receptor (Homo sapiens, UniProt Q96RJ0); assay: TAAR1 receptor cAMP agonist test; assay type: cell-based; design: Emax: dose or concentration left out as unconfirmed
T1 sequence (Q96RJ0 1-339): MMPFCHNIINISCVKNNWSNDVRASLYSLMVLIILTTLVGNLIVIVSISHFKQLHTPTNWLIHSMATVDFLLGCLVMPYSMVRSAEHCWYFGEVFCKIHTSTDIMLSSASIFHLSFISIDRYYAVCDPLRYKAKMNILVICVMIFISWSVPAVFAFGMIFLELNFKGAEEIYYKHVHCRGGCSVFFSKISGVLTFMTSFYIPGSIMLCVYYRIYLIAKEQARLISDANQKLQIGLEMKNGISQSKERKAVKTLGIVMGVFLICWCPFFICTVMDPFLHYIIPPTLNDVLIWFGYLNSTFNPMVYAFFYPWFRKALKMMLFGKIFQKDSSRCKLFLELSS
Text: The cAMP detection kit was purchased from Cisbio; the […] cell line stably expressing TAAR1 receptor was constructed by Shanghai Shujing Biotechnology Co., Ltd.; IBMX was purchased from Sigma; Phenethylamine (PEA); ProxiPlate-384 well plate was purchased from PerkinElmer; HBSS was purchased from Thermo Fisher Scientific Company.

[2] = target: T2, 5-HT1A receptor (Homo sapiens, UniProt P08908); assay: 5-HT1A receptor cAMP agonist test; assay type: cell-based
T2 sequence (P08908 1-422): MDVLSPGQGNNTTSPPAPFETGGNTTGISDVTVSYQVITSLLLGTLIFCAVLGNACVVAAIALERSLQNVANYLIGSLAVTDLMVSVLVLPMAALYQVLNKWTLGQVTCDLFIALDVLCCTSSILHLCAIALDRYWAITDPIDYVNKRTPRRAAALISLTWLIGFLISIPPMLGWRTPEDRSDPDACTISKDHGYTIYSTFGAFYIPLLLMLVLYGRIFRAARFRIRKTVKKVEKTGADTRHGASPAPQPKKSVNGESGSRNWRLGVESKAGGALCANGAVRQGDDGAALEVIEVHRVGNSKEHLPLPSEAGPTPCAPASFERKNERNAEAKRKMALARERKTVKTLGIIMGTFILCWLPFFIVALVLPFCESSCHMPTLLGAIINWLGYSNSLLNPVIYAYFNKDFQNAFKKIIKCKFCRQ
Text: The cAMP detection kit was purchased from Cisbio; the HEK293 cell line stably expressing 5-HT1A receptor was constructed by Shanghai Shujing Biotechnology Co., Ltd.; Serotonin, Forskolin and IBMX were purchased from Sigma; ProxiPlate-384-well plates was purchased from PerkinElmer; HBSS was purchased from Thermo Fisher Scientific.
Activation rate (activity %)=(negative control ratio-compound ratio)/(negative control ratio-positive control ratio)×100%

[3] = test system: high spontaneous activity induced by MK-801 in mice; assay: Inhibition of high spontaneous activity induced by MK-801 in mice; assay type: in vivo, male C57Bl/6J mice
Experimental: Compounds to be tested: compounds in the examples of the present application, self-made.
(§1) Experimental animals: 18-22 g male C57Bl/6J mice, purchased from Shanghai Slack Experimental Animal Co., Ltd.
(§2) before the start of the experiment, animals were randomly grouped according to body weight.
before the experiment, the mice were first adapted to the experimental environment for at least 1 hour. That is, the animals were transferred from the breeding room to the laboratory and moved freely in the cage.
(§3) Drug preparation: taking the compound to be tested, adding pure water and performing ultrasonication.
(§4) The animals were randomly divided into blank group, model group, and administration group according to body weight, 9 mice/group, and the detailed administration information is shown in the following table:
(§5) T-30 min oral administration of compound: compound to be tested or solvent (pure water) was administered orally by gavage, and put into test box (test box size length*width*height=27*27*40 cm) immediately after administration, recording the spontaneous activity of the mice within 30 minutes.
The blank control group was injected with normal saline.
(§6) The activities of these animals (movement distance in the test box) were automatically recorded by the camera, and analyzed with ANY MAZE software, and the ED50 values were calculated.

[4] = test system: high spontaneous activity induced by PCP in mice; assay: Inhibition of high spontaneous activity induced by PCP in mice; assay type: in vivo, male C57Bl/6J mice
Text: Compounds to be tested: compounds of the examples of the present application, self-made.
Phencyclidine hydrochloride (PCP): purchased from Shanghai Yuansi Standard Science Technology Co., Ltd., specification: 5 g.
as §1, §2
before the experiment, the mice were first adapted to the experimental environment for at least 1 hour. That is, animals were transferred from the feeding room to the laboratory, and moved freely in the cage.
as §3, §4, §5
T0 min intraperitoneal injection of modeling drug: 30 minutes after compound administration, the mice were taken out, and administered with PCP (5 mg/kg) by intraperitoneal injection. The blank control group was injected with pure water. After the administration of PCP, the animals were immediately put back into the test box, and the test was continued for 60 minutes.
as §6

[5] = Equilibrium solubility in water for 24 hours; assay type: physicochemical; conditions: deionized water, 37 °C
Experimental: Investigating the equilibrium solubility of each hydrochloride crystal form of Compound A in water for 24 hours.
Excess samples of hydrochloride crystal form I and hydrochloride crystal form II of Compound A were weighed and placed in different 10 mL centrifuge tubes, and 1 mL of deionized water was added, sealed with a parafilm, shaking at a constant temperature of 37 °C and 150 rpm for 24 hours; after passing through a 0.45 μm organic filter, the sample was diluted and injected for HPLC analysis.

[6] = Solid stability experiment (high temperature, high humidity, light); assay type: physicochemical; conditions: for chemical stability: high temperature, high humidity, or illumination, conclusion in words; for degraded at 240 h / degraded at 480 h / degraded at 2040 h: solid, read-out: Increase of total impurities; for degraded at 240 h: day 10; for degraded at 480 h: day 20; for degraded at 2040 h: day 85
Experimental: Investigating the chemical stability of each hydrochloride crystal form of Compound A under high temperature, high humidity, and light conditions.
Appropriate amounts of hydrochloride crystal form I and hydrochloride crystal form II of Compound A were weighed and placed in weighing dishes respectively; three samples for each salt were prepared, and placed respectively in a oven at 60 °C, a drying dish with RH 92.5%, and a stability test chamber with an illumination condition of 5000 lx for 85 days. After mixing all samples evenly at day 0, day 10, day 20, and day 85, samples were taken and dissolved in acetonitrile and water, and the content and impurity changes were detected by HPLC-related substance detection method.

In the case of `CNC[C@@H]1OCC2(CC2)c2sccc21` (single isomer, unassigned) [Compound A], the “agonist effect on the TAAR1 receptors” value ([1]; conclusion in words) is reported as “have an agonist effect on the TAAR1 receptors”, the Emax ([1]; read-out: TAAR1 Max Act %) is reported as 95.5% and the Emax at 1 µM ([2]; activation rate, positive control Serotonin, final concentration 10^−6M, read-out: 5-HT1A Max Act %) is reported as 95.2%. The “agonistic effect on 5-HT1A receptors” value ([2]; conclusion in words) was “has agonistic effect on 5-HT1A receptors”, the “inhibitory effect compared to SEP-363856” value ([3]; MK-801 model, conclusion in words) was “lower minimum effective dose and stronger inhibitory effect” and the minimal effective dose ([3]; Mus musculus, po, 2.5 h, p.o. 30 min before MK-801 0.3 mg/kg i.p., movement distance, 150 min, read-out: MED (minimum effective dose)) was 10 mg/kg. For the same compound, the “inhibition of high spontaneous activity induced by MK-801” value ([3]; p.o., conclusion in words) was “can significantly inhibit the high spontaneous activity induced by MK-801 in mice, and the inhibitory effect is gradually enhanced with the increase of the compound dosage, and there is a good dose-dependent relationship”, the minimal effective dose ([4]; Mus musculus, po, 1 h, p.o. 30 min before PCP 5 mg/kg i.p., movement distance, 60 min, read-out: MED (minimum effective dose)) was 0.1 mg/kg and the “inhibitory effect compared to SEP-363856” value ([4]; PCP model, conclusion in words) was “lower minimum effective dose and stronger inhibitory effect”. For the same compound, the “inhibition of high spontaneous activity induced by PCP” value ([4]; p.o., conclusion in words) was “can significantly inhibit the high spontaneous activity induced by PCP in mice, and the inhibitory effect is gradually enhanced with the increase of the compound dosage, and there is a good dose-dependent relationship”.

With `CNC[C@@H]1OCC2(CC2)c2sccc21` [Hydrochloride crystal form I, (R)-1-(4′H,6′H-spiro[cyclopropane-1,7′-thieno[3,2-c]pyran]-4′-yl)-N-methylmethylamine] the solubility thermodynamic at 24 h ([5]; water) was 155 mg/mL, the chemical stability [6] was “good chemical stability” and the degraded at 240 h ([6]; High humidity of RH 92.5%) was under 0.1%. For the same compound, the degraded at 480 h ([6]; High humidity of RH 92.5%) was under 0.1%, the degraded at 2040 h ([6]; High humidity of RH 92.5%) was 0.199% and the degraded at 240 h ([6]; Illumination of 5000 lx) was under 0.1%. The degraded at 480 h ([6]; Illumination of 5000 lx) was under 0.1% and the degraded at 2040 h ([6]; Illumination of 5000 lx) was under 0.1%.

For `CNC[C@@H]1OCC2(CC2)c2sccc21` [Hydrochloride crystal form II, (R)-1-(4′H,6′H-spiro[cyclopropane-1,7′-thieno[3,2-c]pyran]-4′-yl)-N-methylmethylamine], the Equilibrium solubility ([5]; 1440 min) was 162.30 mg/mL, the chemical stability [6] was “good chemical stability” and the degraded at 240 h ([6]; High temperature of 60 °C) was under 0.1%. The degraded at 480 h ([6]; High temperature of 60 °C) was under 0.1% and the degraded at 2040 h ([6]; High temperature of 60 °C) was 0.133%.
